Measurements from publication PMC4501006, “Preliminary Characterization and In Vivo Studies of Structurally Identical ^18F- and ^125I-Labeled Benzyloxybenzenes for PET/SPECT Imaging of β-Amyloid Plaques” (Scientific Reports, 2015).
Several values for one entry are separate records, joined by “and”; a condition that tells them apart may be missing. Equal values may be shown once. Each block holds one compound with its values, some of them ahead of it.

Experiments:
Aβ42 aggregates = Aβ42 aggregates (Homo sapiens, UniProt P05067); test: Competition binding assay using [125I]4 as radio-ligand; settings: inhibition of [125I]4 binding to Aβ42 aggregates
Aβ42 aggregates, sequence (P05067 672-713 limits assumed): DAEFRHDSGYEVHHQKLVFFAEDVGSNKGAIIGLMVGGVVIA
From the text: The actual binding affinities agreed well with values predicted by the CoMFA and CoMSIA models, with pKi values deviating by less than 0.5 log unit. This satisfactory result strongly validated the reliability of the established 3D-QSAR models. This ability to accurately predict the binding activities of new benzyloxybenzene derivatives will be of great help for future efforts to design new potent Aβ imaging agents.

[1] = In vivo metabolism (biostability), HPLC analysis of organ samples; settings: ICR mice, i.v.
Protocol: All four radioactive ligands degraded to two corresponding polar radioactive products with shorter retention times. […] The good in vivo biostability of these compounds enhances their potential for SPECT mapping of the brain. […] In the plasma, all four ligands were rapidly converted to polar metabolites, leaving only approximately 10% of the parent tracers at 60 min. […] In contrast, the breakdown of [^125I]7a and [^125I]12a was so rapid that almost negligible amounts of parent tracers remained at 30 min (8.8% and 6.3%, respectively). The polar and hydrophilic metabolites metabolized by the liver could be absorbed by the intestine and excreted through the urine, in accordance with the biodistribution results. The rapid metabolism in the liver may be another reason for the faster clearance of these compounds from the normal brain. For structurally identical molecules labeled with radioactive isotopes at different positions, the in vivo metabolic pathways were expected to be the same. However, as only radioactive products can be detected with PET/SPECT scanners, different pharmacokinetics of the radioactive components could lead to different imaging results. […] The dual radiolabeled identical benzyloxybenzene derivatives in this study were expected to undergo the same metabolic reactions, generating different radioactive metabolites. Differences in the biochemical characteristics of the radiometabolites including absorption, distribution, metabolism and excretion are responsible for the discrepancy in the pharmacokinetics of the radioactivity.

[2] = Partition coefficient determination (log D); assay type: physicochemical
Protocol: An ideal Aβ imaging probe would combine a high binding affinity to Aβ plaques and excellent pharmacokinetics with high initial brain uptake and rapid washout from normal brain regions. Thus, the partition coefficients of these four radiolabeled ligands were determined to estimate their ability to penetrate the BBB.

[3] = In vivo biodistribution in normal ICR mice; settings: i.v.
Protocol: Histograms of brain and intestine uptake were presented in Fig. 6 for comparison, while detailed data concerning the in vivo biodistribution in normal ICR mice were collected in Table S3 in Supplementary information. […] [^125I]7a and [^125I]12a were rapidly cleared from the normal brain, with only small amounts of radioactivity remaining at 60 min post-injection (0.55% ID/g for [^125I]7a and 0.37% ID/g for [^125I]12a). […] In addition, no significant deiodination was observed (less than 0.5% ID in the thyroid at 60 min).
As the specific activity of ^18F-labeled ligands (about 60 GBq/μmol) was slightly lower than that of corresponding no-carrier-added ^125I-labeled ligands (81 GBq/μmol), the impact of specific activity on pharmacokinetics was studied. In vivo biodistribution of radioactivity after injection of carrier-added [^125I]7a with equal specific activity to corresponding [^18F]7a (60 GBq/μmol) was conducted in normal ICR mice through the same procedure.
A structural model of an Aβ fiber (PDB ID: 2LMO) derived from solid state NMR was downloaded from the RCSB Protein Data Bank (www.rcsb.org/pdb). Geometric optimization was performed using Gaussian 09 at the B3LYP/6–31 G and 3-21G levels in the water phase. Molecular docking was performed using AutoDock4.0, and the docking results were graphed with VMD 1.9.1 software. SYBYL-X 1.1 software was used to predict the binding affinities with previously constructed 3D-QSAR models. All reagents for chemical synthesis were used as purchased without further purification. [^125I]NaI was purchased from PerkinElmer and ^18F^– was kindly provided by the Chinese PLA General Hospital. ^1H and ^13C NMR spectra were recorded on a Bruker Avance III NMR spectrometer (400 MHz for ^1H; 101 MHz for ^13C) in CDCl3 or DMSO-d6 solutions at room temperature. Mass spectra were acquired with a GCT CA127 Micronass UK instrument. X-ray crystallographic data of compound 12a were collected on a Bruker Smart APEX II diffractometer (Bruker Co., Germany) and deposited at the Cambridge Crystallographic Data Centre as supplementary publication (no. CCDC 1063679). HPLC analysis was performed on a Shimadzu SCL-20 AVP equipped with a Bioscan Flow Count 3200 NaI/PMT γ-radiation scintillation detector and a SPD-20A UV detector, λ = 254 nm. A Venusil MP C18 reverse phase column (Agela Technologies, 5 μm, 4.6 × 250 mm) was used for separations and purity determinations with a binary gradient system (acetonitrile: water = 80%: 20%) at a 1.0 mL/min flow rate. Fluorescent observation was performed on the Axio Observer Z1 inverted fluorescence microscope (Zeiss, Germany) equipped with a DAPI filter set (excitation, 405 nm). Post-mortem brain sections from an autopsy-confirmed AD subject and a control subject were acquired from the Chinese Brain Bank. Transgenic mice (APPswe/PSEN1, male) and wild-type mice (C57BL6, male) were purchased from the Institute of Laboratory Animal Science, Chinese Academy of Medical Sciences. Normal ICR mice (20–22 g, male) were used for in vivo biodistribution, dynamic PET/CT and SPECT/CT scans, and biostability experiments. All experiments on mice were performed in accordance with the guidelines approved by the animal care committee of Beijing Normal University and Xiamen University.

Aβ plaques = Aβ plaques (Homo sapiens, UniProt P05067); test: In vitro autoradiography on AD human brain sections; assay type: binding
Aβ plaques, sequence (P05067 672-711 limits assumed): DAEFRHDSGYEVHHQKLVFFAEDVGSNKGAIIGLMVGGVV
From the text: Figure 5 In vitro autoradiography of [^125I]7a (a–d), [^18F]7a (e–h), [^125I]12a (i–l) and [^18F]12a (m–p).

Ki (Aβ42 aggregates): 19.5 nM
Structure (SMILES): FCCOc1ccc(OCc2ccc(I)cc2)cc1 [7a]

Ki (Aβ42 aggregates): 23.9 nM
Structure (SMILES): FCCOc1ccc(COc2ccc(I)cc2)cc1 [12a]

Percentage of Parent tracer, Brain ([1]; post-injection time 2 min): 92.1% | Percentage of Parent tracer, Feces ([1]; post-injection time 2 min): 0.0% | Percentage of Parent tracer, Liver ([1]; post-injection time 2 min): 49.1% | Percentage of Parent tracer, Plasma ([1]; post-injection time 2 min): 88.4% | Percentage of Parent tracer, Urine ([1]; post-injection time 2 min): 0.0% | Percentage of Parent tracer, Brain ([1]; post-injection time 10 min): 82.1% | Percentage of Parent tracer, Feces ([1]; post-injection time 10 min): 0.0% | Percentage of Parent tracer, Liver ([1]; post-injection time 10 min): 21.5% | Percentage of Parent tracer, Plasma ([1]; post-injection time 10 min): 29.6% | Percentage of Parent tracer, Urine ([1]; post-injection time 10 min): 0.0% | Percentage of Parent tracer, Brain ([1]; post-injection time 30 min): 78.3% | Percentage of Parent tracer, Feces ([1]; post-injection time 30 min): 0.0% | Percentage of Parent tracer, Liver ([1]; post-injection time 30 min): 6.3% | Percentage of Parent tracer, Plasma ([1]; post-injection time 30 min): 26.3% | Percentage of Parent tracer, Urine ([1]; post-injection time 30 min): 0.0% | Percentage of Parent tracer, Brain ([1]; post-injection time 60 min): 68.6% | Percentage of Parent tracer, Feces ([1]; post-injection time 60 min): 0.0% | Percentage of Parent tracer, Liver ([1]; post-injection time 60 min): 3.8% | Percentage of Parent tracer, Plasma ([1]; post-injection time 60 min): 4.68% | Percentage of Parent tracer, Urine ([1]; post-injection time 60 min): 0.0% | logD [2]: 3.62 ± 0.15 | brain2 min/brain60 min ratio [3]: 14.2 | Biodistribution of radioactivity, blood ([3]; 2 min): 4.96 ± 0.35 % injected dose per gram | Biodistribution of radioactivity, heart ([3]; 2 min): 6.61 ± 1.42 % injected dose per gram | Biodistribution of radioactivity, intestine ([3]; 2 min): 4.81 ± 0.97 % injected dose per organ | Biodistribution of radioactivity, kidney ([3]; 2 min): 9.16 ± 0.59 % injected dose per gram | Biodistribution of radioactivity, liver ([3]; 2 min): 18.12 ± 2.34 % injected dose per gram | Biodistribution of radioactivity, lung ([3]; 2 min): 10.30 ± 2.16 % injected dose per gram | Biodistribution of radioactivity, muscle ([3]; 2 min): 3.47 ± 0.45 % injected dose per gram | Biodistribution of radioactivity, pancreas ([3]; 2 min): 6.45 ± 0.56 % injected dose per gram | Biodistribution of radioactivity, spleen ([3]; 2 min): 2.85 ± 0.30 % injected dose per gram | Biodistribution of radioactivity, stomach ([3]; 2 min): 1.30 ± 0.14 % injected dose per organ | Biodistribution of radioactivity, thyroid ([3]; 2 min): 0.13 ± 0.02 % injected dose per organ | Biodistribution of radioactivity, brain ([3]; 2 min, listed as [125I]12a): 5.27 ± 0.98 % injected dose per gram | Biodistribution of radioactivity, blood ([3]; 10 min): 3.88 ± 0.79 % injected dose per gram | Biodistribution of radioactivity, brain ([3]; 10 min): 2.28 ± 0.27 % injected dose per gram | Biodistribution of radioactivity, heart ([3]; 10 min): 2.12 ± 0.16 % injected dose per gram | Biodistribution of radioactivity, intestine ([3]; 10 min): 10.68 ± 2.60 % injected dose per organ | Biodistribution of radioactivity, kidney ([3]; 10 min): 7.61 ± 1.23 % injected dose per gram | Biodistribution of radioactivity, liver ([3]; 10 min): 12.07 ± 1.06 % injected dose per gram | Biodistribution of radioactivity, lung ([3]; 10 min): 4.16 ± 0.26 % injected dose per gram | Biodistribution of radioactivity, muscle ([3]; 10 min): 1.31 ± 0.12 % injected dose per gram | Biodistribution of radioactivity, pancreas ([3]; 10 min): 2.44 ± 0.28 % injected dose per gram | Biodistribution of radioactivity, spleen ([3]; 10 min): 1.29 ± 0.06 % injected dose per gram | Biodistribution of radioactivity, stomach ([3]; 10 min): 1.34 ± 0.16 % injected dose per organ | Biodistribution of radioactivity, thyroid ([3]; 10 min): 0.13 ± 0.01 % injected dose per organ | Biodistribution of radioactivity, blood ([3]; 30 min): 3.89 ± 0.53 % injected dose per gram | Biodistribution of radioactivity, brain ([3]; 30 min): 0.81 ± 0.06 % injected dose per gram | Biodistribution of radioactivity, heart ([3]; 30 min): 1.67 ± 0.09 % injected dose per gram | Biodistribution of radioactivity, intestine ([3]; 30 min): 16.61 ± 3.88 % injected dose per organ | Biodistribution of radioactivity, kidney ([3]; 30 min): 7.44 ± 0.90 % injected dose per gram | Biodistribution of radioactivity, liver ([3]; 30 min): 8.68 ± 1.02 % injected dose per gram | Biodistribution of radioactivity, lung ([3]; 30 min): 3.56 ± 0.38 % injected dose per gram | Biodistribution of radioactivity, muscle ([3]; 30 min): 0.99 ± 0.17 % injected dose per gram | Biodistribution of radioactivity, pancreas ([3]; 30 min): 1.75 ± 0.10 % injected dose per gram | Biodistribution of radioactivity, spleen ([3]; 30 min): 1.03 ± 0.10 % injected dose per gram | Biodistribution of radioactivity, stomach ([3]; 30 min): 2.02 ± 0.49 % injected dose per organ | Biodistribution of radioactivity, thyroid ([3]; 30 min): 0.19 ± 0.04 % injected dose per organ | Biodistribution of radioactivity, blood ([3]; 60 min): 3.01 ± 1.07 % injected dose per gram | Biodistribution of radioactivity, brain ([3]; 60 min): 0.37 % injected dose per gram | Biodistribution of radioactivity, heart ([3]; 60 min): 1.17 ± 0.45 % injected dose per gram | Biodistribution of radioactivity, intestine ([3]; 60 min): 18.84 ± 8.75 % injected dose per organ | Biodistribution of radioactivity, kidney ([3]; 60 min): 6.09 ± 2.17 % injected dose per gram | Biodistribution of radioactivity, liver ([3]; 60 min): 4.64 ± 0.77 % injected dose per gram | Biodistribution of radioactivity, lung ([3]; 60 min): 3.11 ± 1.02 % injected dose per gram | Biodistribution of radioactivity, muscle ([3]; 60 min): 1.20 ± 0.26 % injected dose per gram | Biodistribution of radioactivity, pancreas ([3]; 60 min): 1.37 ± 0.41 % injected dose per gram | Biodistribution of radioactivity, spleen ([3]; 60 min): 0.84 ± 0.31 % injected dose per gram | Biodistribution of radioactivity, stomach ([3]; 60 min): 2.27 ± 0.40 % injected dose per organ | Biodistribution of radioactivity, thyroid ([3]; 60 min): 0.34 ± 0.10 % injected dose per organ | Biodistribution of radioactivity, brain ([3]; 60 min, listed as [125I]12a): 0.37 ± 0.06 % injected dose per gram | in vitro autoradiography, plaque labeling (Aβ plaques): specifically label Aβ deposits
Structure (SMILES): FCCOc1ccc(COc2ccc([125I])cc2)cc1 [[^125I]12a]
Biodistribution of radioactivity, brain ([3]; 2 min): > 5 % injected dose per gram and 5.27 % injected dose per gram
